Target: T1, Toll-like receptor 7 (Homo sapiens, UniProt Q9NYK1)
T1 sequence (Q9NYK1 whole entry): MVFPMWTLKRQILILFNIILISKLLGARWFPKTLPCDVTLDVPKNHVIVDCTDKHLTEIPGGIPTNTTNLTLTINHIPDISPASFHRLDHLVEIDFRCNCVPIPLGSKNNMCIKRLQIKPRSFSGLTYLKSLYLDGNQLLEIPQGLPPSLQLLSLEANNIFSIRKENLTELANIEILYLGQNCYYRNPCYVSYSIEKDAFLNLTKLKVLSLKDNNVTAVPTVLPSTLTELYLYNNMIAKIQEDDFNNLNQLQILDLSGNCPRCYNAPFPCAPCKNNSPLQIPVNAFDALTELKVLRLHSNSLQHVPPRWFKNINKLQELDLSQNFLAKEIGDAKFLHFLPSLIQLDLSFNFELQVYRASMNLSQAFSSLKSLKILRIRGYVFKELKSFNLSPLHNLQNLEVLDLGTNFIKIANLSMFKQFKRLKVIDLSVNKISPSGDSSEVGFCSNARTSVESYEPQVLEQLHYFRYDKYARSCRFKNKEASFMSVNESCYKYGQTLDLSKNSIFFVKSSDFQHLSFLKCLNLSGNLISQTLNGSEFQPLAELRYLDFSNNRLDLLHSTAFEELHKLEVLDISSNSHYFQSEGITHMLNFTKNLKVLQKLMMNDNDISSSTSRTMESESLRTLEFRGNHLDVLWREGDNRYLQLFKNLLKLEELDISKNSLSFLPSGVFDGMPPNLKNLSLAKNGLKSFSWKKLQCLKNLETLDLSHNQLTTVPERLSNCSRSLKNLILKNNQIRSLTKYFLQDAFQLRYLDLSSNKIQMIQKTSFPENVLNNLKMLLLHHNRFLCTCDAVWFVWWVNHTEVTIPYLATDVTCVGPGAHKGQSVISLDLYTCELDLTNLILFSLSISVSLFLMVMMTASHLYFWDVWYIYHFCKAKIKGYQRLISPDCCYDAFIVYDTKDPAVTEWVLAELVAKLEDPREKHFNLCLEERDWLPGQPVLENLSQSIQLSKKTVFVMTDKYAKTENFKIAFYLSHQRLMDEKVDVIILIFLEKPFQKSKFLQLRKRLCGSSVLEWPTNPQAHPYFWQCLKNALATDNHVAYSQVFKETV
Test: Antagonist activity at TLR7 in HEK cells assessed as decrease in R848-induced NF-kappaB activation incubated for 30 mins followed by R848 addition measured after 5 hrs by steady-Glo reagent based assay
Type: cell-based

| IC50 [nM] | SMILES |
| --- | --- |
| < 1000 | C[C@@H]1C[C@H](c2ccc(C#N)c3ncccc23)CN(C(=O)CN2CCN(C)CC2)C1 |
| < 1000 | C[C@@H]1C[C@H](c2ccc(C#N)c3ncccc23)CN(C(=O)CC2C3CC2CN(C)C3)C1 (some centres not stated) |
| < 1000 | C[C@@H]1C[C@@H](c2ccc(C#N)c3ncccc23)CN(C(=O)C[C@H]2[C@@H]3CNC[C@@H]32)C1 |
| < 1000 | CC1CC(c2ccc(C#N)c3ncccc23)CN(CC2CCN(C)C2)C1 (configuration not stated) |
| < 1000 | C[C@@H]1C[C@H](c2ccc(C#N)c3ncccc23)CN(C(=O)NC2CCN(C)CC2)C1 |
| < 1000 | C[C@@H]1C[C@H](c2ccc(C#N)c3ncccc23)CN(C(=O)CC2CCN(C)CC2)C1 |

Second part, the compound before the results:

| SMILES | IC50 [nM] |
| --- | --- |
| C[C@H]1C[C@@H](NC(=O)[C@@H](O)C(C)(C)C)C[C@H](c2ccc(C(F)(F)F)c3nccnc23)C1 | < 1000 |
| C[C@@H]1C[C@H](c2ccc(C(F)(F)F)c3ncccc23)CN(C(=O)NC2CC2)C1 | 1000 to 20000 |
| C[C@@H]1C[C@H](N)C[C@@H](c2ccc(C(F)(F)F)c3nccnc23)C1 | < 1000 |
| C[C@@H]1C[C@@H](c2ccc(C(F)(F)F)c3ncccc23)CN(C(=O)CCn2cccn2)C1 | > 20000 |
| Cc1ccc([C@H]2C[C@@H](C)CN(C(=O)CC3CCN(C)CC3)C2)c2cccnc12 | < 1000 |
| C[C@@H]1C[C@H](N)C[C@H](c2ccc(C(F)(F)F)c3nccnc23)C1 | < 1000 |

— ChEMBL document CHEMBL4251728, “Toll-like Receptors for the Treatment of Autoimmune, Inflammation, and Infectious Diseases” (ACS Med Chem Lett, 2018)
